Assay [1] relates to SOS1. Particulars: cited from earlier work; for IC50: read-out: Actual IC50.
The target of assay [2] is T1, KRAS G12C/SOS1 (Homo sapiens, UniProt Q07889).
T1 construct: purchased Cytoskeleton (SOS1); AntibodySystem (KRAS G12C)
T1 sequence (Q07889 564-1049 limits assumed): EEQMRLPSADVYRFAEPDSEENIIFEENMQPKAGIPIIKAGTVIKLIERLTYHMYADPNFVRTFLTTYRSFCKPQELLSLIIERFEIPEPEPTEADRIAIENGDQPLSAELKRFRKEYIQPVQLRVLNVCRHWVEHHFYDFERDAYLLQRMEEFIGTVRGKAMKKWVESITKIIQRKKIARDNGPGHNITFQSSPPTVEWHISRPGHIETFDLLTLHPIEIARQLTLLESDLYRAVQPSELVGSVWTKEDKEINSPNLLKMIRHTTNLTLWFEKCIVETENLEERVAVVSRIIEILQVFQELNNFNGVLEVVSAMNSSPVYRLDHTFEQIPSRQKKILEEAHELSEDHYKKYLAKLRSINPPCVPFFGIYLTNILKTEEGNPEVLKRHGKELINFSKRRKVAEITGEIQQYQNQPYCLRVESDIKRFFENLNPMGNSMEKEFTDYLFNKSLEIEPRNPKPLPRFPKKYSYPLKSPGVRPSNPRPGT
Description: KRAS G12C/SOS1 PPI homogeneous time-resolved fluorescence (HTRF) assay. Type of assay: binding. The note with it: for inhibition at 25 µg/mL: read-out: Inhibition rate at 25 μg mL^−1 (%); for inhibition at 0.5 µg/mL / inhibition at 10 µg/mL / inhibition at 40 µg/mL / inhibition at 50 µg/mL: read-out: Inhibition rate (%). As to the method:
All the test compounds were provided by the CNCL (https://www.cncl.org.cn/). […] The percentage inhibition was calculated by comparison with the buffer control group. The IC50 value was calculated by GraphPad Prism software in inhibitor versus normalized response (variable slope) mode.

Setting [3] is: 10% reserved data (Table S3), ref ChEMBL database (version 31).
Setting [4] is: converted from μg mL^−1, read-out: IC50 calculated using the molecular weight of each compound.
Setting [5] is: dose-response 0.5–50 μg mL^−1, read-out: IC50 (μg mL^−1).

The source of these data is PMC11042245, “Discovery of novel SOS1 inhibitors using machine learning” (RSC Medicinal Chemistry, 2024).

Where two headings read alike, the source gives them in different places.

In the case of `COc1cc2nc(C)nc(N[C@H](C)c3cc(N)cc(C(F)(F)F)c3)c2cc1O[C@H]1CCN(C(C)=O)C1` [CHEMBL4435672], the “Actual pChEMBL” value in assay [1] (setting [3]) is on record as 8.52.

With `Cc1nc(N[C@H](C)c2cc(N)cc(C(F)(F)F)c2C)c2cc(C3CCS(=O)(=O)CC3)ccc2n1` [CHEMBL4441820], the “Actual pChEMBL” value in assay [1] (setting [3]) was 8.40.

Regarding `Cc1cccc([C@@H](C)Nc2nc(C)nc3ccc(C4CCS(=O)(=O)CC4)cc23)c1` [CHEMBL4443395], the “Actual pChEMBL” value in assay [1] (setting [3]) was 7.54.

`COCC(=O)N1CCC(c2cc3c(N[C@H](C)c4cccc(C)c4)nc(C)nc3cc2C)CC1` [CHEMBL4448274]: the “Actual pChEMBL” value in assay [1] (setting [3]) is 7.47.

For `COc1cc2nc(C)nc(N[C@H](C)c3cc(N)cc(C(F)(F)F)c3)c2cc1C1CCC(C(=O)N2CCOCC2)CC1` (some centres unmarked) [CHEMBL4451252], the “Actual pChEMBL” value in assay [1] (setting [3]) is reported as 7.60.

In the case of `COc1cc2nc(C)nc(N[C@H](C)c3cccc(C(F)(F)F)c3)c2cc1-c1ccc(C(=O)N(C)CCO)cc1` [CHEMBL4453639], the “Actual pChEMBL” value in assay [1] (setting [3]) is on record as 7.40.

Take `COc1cc2nc(C)nc(N[C@H](C)c3cccc(C)c3)c2cc1-c1ccc(=O)[nH]c1` [CHEMBL4455684]: the “Actual pChEMBL” value in assay [1] (setting [3]) is 7.55.

As to `CCOc1cc2c(N[C@H](C)c3ccc(F)cc3)nc(C)nc2cn1` [CHEMBL4456281], in assay [1] (Table 3), the “Actual pChEMBL” value was 5.03 and the 50% inhibitory concentration (IC50) was 9.3 µM.

`COc1cc2nc(C)nc(N[C@H](C)c3cccc(C(F)(F)F)c3F)c2cc1C1(O)CCC(C(=O)N(C)C)CC1` (some centres unmarked) [CHEMBL4459389]: the “Actual pChEMBL” value in assay [1] (setting [3]) is 8.30.

On to `CC(=O)N[C@@H]1CCN(c2cc3c(NC(C)c4ccc(-c5ccccc5CN(C)C)s4)nc(C)nc3cn2)C1` (some centres unmarked) [CHEMBL4463000], for which, in assay [1] (Table 3), the “Actual pChEMBL” value is given as 7.82 and the 50% inhibitory concentration (IC50) was 0.015 µM.

`Cc1cccc([C@@H](C)Nc2nc(C)nc3ccc([C@H]4CC[C@H](C(=O)N5CC(C#N)C5)CC4)cc23)c1` [CHEMBL4463184]: the “Actual pChEMBL” value in assay [1] (setting [3]) is recorded as 7.44.

Regarding `CONC(=O)CC(C)c1cc2c(N[C@H](C)c3cccc(C(F)(F)F)c3)nc(C)nc2cc1C` (some centres unmarked) [CHEMBL4464090], the “Actual pChEMBL” value in assay [1] (setting [3]) is 8.10.

Take `COCC(=O)N1CCC(c2ccc3nc(C)nc(N[C@H](C)c4cc(N)cc(C(F)(F)F)c4)c3c2)CC1` [CHEMBL4469357]: the “Actual pChEMBL” value in assay [1] (setting [3]) was 8.70.

As to `Cc1cccc([C@@H](C)Nc2nc(C)nc3cc(C)c(-c4ccc(=O)n(C)c4)cc23)c1` [CHEMBL4473214], the “Actual pChEMBL” value in assay [1] (setting [3]) is reported as 7.44.

In the case of `COCCN(C)C(=O)C1CCC(c2cc3c(N[C@H](C)c4cc(N)cc(C(F)(F)F)c4)nc(C)nc3cc2OC)CC1` (some centres unmarked) [CHEMBL4513254], in assay [1] (setting [3]), the “Actual pChEMBL” value was 8.52.

For the compound `COc1cc2nc(C)nc(N[C@H](C)c3cccc(C(F)(F)F)c3)c2cc1-c1ccc(C(=O)N(C)C)cn1` [CHEMBL4515122], the “Actual pChEMBL” value in assay [1] (setting [3]) is listed as 7.46.

As to `CC(=O)N1CCC(O)(c2ccc3nc(C)nc(N[C@H](C)c4cccc(C)c4)c3c2)CC1` [CHEMBL4524954], the “Actual pChEMBL” value in assay [1] (setting [3]) is listed as 7.85.

On to `COc1cc2nc(C)nc(N[C@H](C)c3cccc(C(F)(F)CO)c3)c2cc1C1=CCC(C(=O)N(C)C)CC1` (some centres unmarked) [CHEMBL4529467], for which the “Actual pChEMBL” value in assay [1] (setting [3]) is on record as 8.70.

Consider `Cc1nc(N[C@H](C)c2cccc(C(F)(F)F)c2)c2cc([C@]3(O)CC[C@H](C(=O)N(C)C)CC3)ccc2n1` [CHEMBL4533487], for which the “Actual pChEMBL” value in assay [1] (setting [3]) is reported as 7.57.

As for `Cc1nc(N[C@H](C)c2cc(N)cc(C(F)(F)F)c2)c2cc(C3CCN(C(=O)CN(C)C)CC3)ccc2n1` [CHEMBL4539190], in assay [1] (setting [3]), the “Actual pChEMBL” value is listed as 8.52.

On to `Cc1nc(N[C@H](C)c2cc(N)cc(C(F)(F)F)c2)c2cc(C3CCC(C(=O)N4CCOCC4)CC3)ccc2n1` (some centres unmarked) [CHEMBL4540213], for which the “Actual pChEMBL” value in assay [1] (setting [3]) is reported as 8.70.

For `CCOc1cc2c(N[C@H](C)c3ccccc3)nc(C)nc2cn1` [CHEMBL4545109], in assay [1] (Table 3), the “Actual pChEMBL” value was 5.69 and the IC50 is 2.06 µM.

For the compound `Cc1nc(N[C@H](C)c2cc(N)cc(C(F)(F)F)c2)c2cc(-c3cnn(CC(=O)N(C)C)c3)ccc2n1` [CHEMBL4546387], the “Actual pChEMBL” value in assay [1] (setting [3]) is reported as 8.10.

Regarding `CCn1ccc(-c2cc3c(N[C@H](C)c4cc(N)cc(C(F)(F)F)c4)nc(C)nc3cc2C)cc1=O` [CHEMBL4551748], the “Actual pChEMBL” value in assay [1] (setting [3]) was 8.30.

`Cc1nc(N[C@H](C)c2cc(N)cc(C(F)(F)F)c2)c2cc([C@H]3CC[C@H](C(=O)N(C)C)CC3)c(C)cc2n1` [CHEMBL4554249]: the “Actual pChEMBL” value in assay [1] (setting [3]) was 8.70.

In the case of `Cc1cccc([C@@H](C)Nc2nc(C)nc3ccc(C4CC[S+]([O-])CC4)cc23)c1` (some centres unmarked) [CHEMBL4561965], in assay [1] (setting [3]), the “Actual pChEMBL” value was 7.66.

Consider `Cc1nc(N[C@H](C)c2cccc(C(F)(F)F)c2)c2cc(-c3cc4n(n3)CCC(=O)N4)ccc2n1` [CHEMBL4570224], for which the “Actual pChEMBL” value in assay [1] (setting [3]) is 7.52.

Take `COc1cc2nc(C)nc(N[C@H](C)c3cc(N)cc(C(F)(F)F)c3F)c2cc1O[C@H]1CCOC1` [CHEMBL4572076]: the “Actual pChEMBL” value in assay [1] (setting [3]) is recorded as 8.30.

As for `COc1cc2nc(C)nc(N[C@H](C)c3cc(N)cc(C(F)(F)F)c3F)c2cc1C1CCC(C(=O)N(C)C)CC1` (some centres unmarked) [CHEMBL4572922], the “Actual pChEMBL” value in assay [1] (setting [3]) was 7.46.

As to `Cc1cccc([C@@H](C)Nc2nc(C)nc3ccc(C4CCOCC4)cc23)c1` [CHEMBL4583745], the “Actual pChEMBL” value in assay [1] (setting [3]) is on record as 7.37.

With `COc1cc2nc(C)nc(N[C@H](C)c3cccc(C(F)(F)F)c3)c2cc1OC` [CHEMBL5084571], in assay [1] (Table 3), the “Actual pChEMBL” value is recorded as 6.97 and the IC50 is 0.106 µM.

Turning to `COc1cc2nc(C)nc(N[C@H](C)c3cccc(S(N)(=O)=O)c3)c2cc1OC` [CHEMBL5085531], in assay [1] (Table 3), the “Actual pChEMBL” value is listed as 7.25 and the IC50 is 0.056 µM.

In the case of `COc1cc2nc(C)nc(N[C@H](C)c3ccccc3)c2cc1OC` [CHEMBL5087955], in assay [1] (Table 3), the “Actual pChEMBL” value is on record as 6.34 and the IC50 was 0.453 µM.

As to `CCC(C)NC(=O)c1ccc(Cn2c(=O)c3cc(OC)c(OC)cc3n(Cc3ccccc3F)c2=O)cc1` (centres unmarked) [CL00817024], the inhibition at 25 µg/mL in assay [2] came to 2 ± 0.8%.

As to `CCOCCCN(C)C1CCN(c2ncc(NC(=O)c3ccc(C)cc3)cc2C(=O)O)CC1` [CL00838284], in assay [2], the inhibition at 25 µg/mL stood at 25.3 ± 0.3%.

In the case of `CC(C)c1cccc2cc3c(nc12)OCCN(CCc1ccc2c(c1)OCO2)C3` [CL01132463], in assay [2], the inhibition at 25 µg/mL was -6.5 ± 2.5%.

In the case of `Cc1ccc(S(=O)(=O)Nc2cnc(N3CCCC3)c(C(=O)O)c2)c(C)c1` [CL01545355], the IC50 in assay [2] (setting [4]) was 94.6 µM. Further, the IC50 in assay [2] (setting [5]) was determined as 94.6 µM. In addition, in assay [2], the inhibition at 0.5 µg/mL was -1.6 ± 0.2%, the inhibition at 10 µg/mL is 17.9 ± 3.3%, the inhibition at 40 µg/mL was 53.3 ± 0.5% and the inhibition at 50 µg/mL stood at 61.6 ± 4%. The inhibition at 25 µg/mL in assay [2] is 38 ± 3.3%.

Consider `CC(C)c1ccc(S(=O)(=O)Nc2cnc(N3CCCC3)c(C(=O)O)c2)cc1` [CL01545365], for which, in assay [2] (setting [4]), the IC50 is 53.7 µM. Also, the half-maximal inhibitory concentration (IC50) in assay [2] (setting [5]) was determined as 53.7 µM. In assay [2], the inhibition at 0.5 µg/mL stood at 0.8 ± 1.1%, the inhibition at 10 µg/mL came out at 31.9 ± 2.8%, the inhibition at 40 µg/mL came out at 66.6 ± 0.1% and the inhibition at 50 µg/mL worked out at 72.3 ± 2.7%. The inhibition at 25 µg/mL in assay [2] turned out to be 53.8 ± 1.6%.

On to `Cc1ccc(S(=O)(=O)Nc2cnc(N3CC=C(c4ccccc4C)CC3)c(C(=O)O)c2)c(C)c1` [CL01545444], for which, in assay [2] (setting [4]), the 50% inhibitory concentration (IC50) was 103 µM. In addition, the IC50 in assay [2] (setting [5]) turned out to be 103 µM. For the same compound, in assay [2], the inhibition at 0.5 µg/mL worked out at 1.5 ± 1.1%, the inhibition at 10 µg/mL is 14.5 ± 3.3%, the inhibition at 40 µg/mL is 45.5% and the inhibition at 50 µg/mL was determined as 49.9 ± 0.5%. In addition, in assay [2], the inhibition at 25 µg/mL was 31.1 ± 1.4%.

As for `Cc1ccccc1C1=CCN(c2ncc(NS(=O)(=O)c3ccc(C(C)C)cc3)cc2C(=O)O)CC1` [CL01545464], in assay [2] (setting [4]), the IC50 was 66.3 µM. In addition, the IC50 in assay [2] (setting [5]) stood at 66.3 µM. Also, in assay [2], the inhibition at 0.5 µg/mL is 3.4 ± 1.8%, the inhibition at 10 µg/mL was determined as 24.2 ± 1.4%, the inhibition at 40 µg/mL was determined as 55.3 ± 3.2% and the inhibition at 50 µg/mL worked out at 60.5 ± 4%. Also, the inhibition at 25 µg/mL in assay [2] is 42.9 ± 3.4%.

As for `Cc1nc(N[C@H](C)c2cccc(C(F)F)c2F)c2cc3c(cc2n1)OC[C@H]1CN(C(=O)C2(C#N)CC2)CCN31` [compound 37], the “Actual pChEMBL value” in assay [1] (external validation data) was 8.33.
